We go through six compounds from patent US5525629A, “Inhibition of cytokine production” (British Bio-Technology Limited, priority 1992, dated 1996).

The target of one assay is T1, collagenase (Homo sapiens, UniProt P03956).
T1 sequence (P03956 100-469): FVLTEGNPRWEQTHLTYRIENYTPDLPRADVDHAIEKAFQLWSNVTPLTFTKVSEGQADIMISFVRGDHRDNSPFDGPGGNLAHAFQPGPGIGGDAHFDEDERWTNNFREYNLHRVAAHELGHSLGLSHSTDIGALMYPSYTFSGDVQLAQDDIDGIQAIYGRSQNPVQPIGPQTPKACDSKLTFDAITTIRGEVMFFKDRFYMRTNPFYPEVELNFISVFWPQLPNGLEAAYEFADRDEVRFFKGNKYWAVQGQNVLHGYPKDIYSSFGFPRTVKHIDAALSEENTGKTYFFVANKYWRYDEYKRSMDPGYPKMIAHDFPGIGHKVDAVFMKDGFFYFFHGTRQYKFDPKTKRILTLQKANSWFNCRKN
The assay is described as follows: inhibition of collagenase (Cawston and Barrett, acetylated 14C collagen). The conditions noted are these: 37°, 16 hours, pH 7.5. In kind it is biochemical. An excerpt: The collagen was acetylated ^14 C collagen prepared by the method of Cawston and Murphy, (Methods in Enzymology, 80, 711, 1981), hereby incorporated by reference. The samples were centrifuged to sediment undigested collagen, and an aliquot of the radioactive supernatant removed for assay on a scintillation counter as a measure of hydrolysis.

In the next assay the target is stromelysin (Homo sapiens, UniProt P08254). Description: inhibition of stromelysin (Cawston et al, acetylated 14C casein). The following applies: 37°, 16 hours, pH 7.5. In kind it is biochemical. From the text:
The casein was acetylated ^14 C casein prepared by the method of Cawston et al (ibid).

Assay [1] has as its system TNF α release from a human monocytic cell line, U937. Description: inhibition of PMA-stimulated TNF α release from U937 cells (TNF α ELISA). The following applies: U-937, PMA 50 nM, 18 hours at 37° C., read-out: concentration of test compound which inhibits the release of TNF α by 50% relative to the control culture (IC50). The class given is cell-based. How it is done:
The ability of example compounds of the invention to inhibit the release of TNF was investigated. The assay is based on the ability of phorbol myristate acetate (PMA) to stimulate the release of TNF α from a human monocytic cell line, U937.
U937 cells cultured in RPMI 1640 medium +5% foetal calf serum are centifuged at 1000×g for 5 minutes and then resuspended in medium at 2×10^6 /mi. 1 ml of cell suspension is aliquoted into individual wells of 24-well plates. Test compounds are dissolved in dimethyl sulphoxide (DMSO) at a stock concentration of 100 mM, then diluted to 50×the final required concentration with RPMI 1640 medium. 20 μl of the diluted compounds are added to U937 cells in duplicate wells. TNF α release is stimulated by addition of PMA to the cells at a final concentration of 50 nM. Appropriate control cultures are set up in duplicate. The plates are incubated for 18 hours at 37° C., 5% CO2, then centrifuged at 1000×g for 5 minutes. A specific ELISA for TNF α obtained from British Bio-technology Products Limited, Abingdon, England is used to measure TNF α levels in the culture supernatants
The average concentration of test compound which inhibits the release of TNF α by 50% relative to the control culture was assessed.

The next assay relates to serum TNF. Description: inhibition of endotoxin (LPS) induced TNF production in vivo (serum TNF by L929 cytotoxicity assay). On the set-up: species or system Male New Zealand rabbits. As for the experimental part:
The compound of Example 3 was assessed for its ability to inhibit release of endotoxin induced TNF production in vivo.
Male New Zealand rabbits, 2.5-3.0 kg, were anaesthetised with sodium pentobarbitone, 30 mg.kg^-1 via a marginal ear vein which was maintained by infusion at 18 mg.kg^-1.hr^-1 via a jugular vein. Following tracheotomy, the animals were ventilated, to maintain arterial blood […], and oxygen was added to the inspired air to maintain arterial blood PO2 above 100 mmHg. Both femoral veins were cannulated for the administration of endotoxin (LPS) and the infusion of test compound, 2.5 mg.kg^-1.hr^-1 at a rate of 6 ml.hr^-1, 15 minutes before the administration of LPS, 40 μg.kg^-1 i.v. bolus. Blood samples were collected from a femoral artery just before and at 30 minute intervals after the administration of LPS for a period of 4 hours.
The biological activity of TNF in serum test samples was determined using a cytotoxicity assay as described in Mathews, N. and Neale, M. L. in Lymphokines and Interferons, a Practical Approach, Eds. M. J. Clements, A. G. Morris, and A. J. H. Gearing, IRL Press, Oxford, UK.
100 μl volumes of L929 cell suspension at 10^5 cells/ml were dispensed into 96-well microtitre plates. The plates were incubated overnight to allow formation of an even monolayer. A series of dilutions of the test rabbit serum was made in a culture medium containing 2 μg/ml of actinomycin D to give a final concentration of 1 μg/ml when added to the cells. The L929 cells were incubated for 24 hours in the presence of test samples, and serially diluted human TNF α was used as the assay standard. After the incubation period, dead cells were removed by washing briefly with phosphate buffered saline, and remaining cells were fixed with 4% formaldehyde for 10 minutes. After washing the plates with water to remove the fixative, the cells were stained by the addition of 50 μl of 1% crystal violet to each well for 5 minutes. The plates were washed extensively with water and dried. Cells were solubilised by the addition of 100 μl/well of 30% acetic acid and the OD at 550 nm was determined. The TNF level in units/ml in the test samples was determined from the human TNF α standard curve. where 1 unit is the equivalent of 1 pg/ml human TNF α.

Assay [2] deals with TNF production by leucocytes. The conditions noted are these: literature (Sampajo et al, 1991); cited from earlier work.
A further assay relates to TNF gene transcription. The following applies: literature; compared with corticosteroids, cyclosporin-A, FK506; cited from earlier work.

The structures appear in SMILES notation.

Chain of stromelysin (P08254 100-477): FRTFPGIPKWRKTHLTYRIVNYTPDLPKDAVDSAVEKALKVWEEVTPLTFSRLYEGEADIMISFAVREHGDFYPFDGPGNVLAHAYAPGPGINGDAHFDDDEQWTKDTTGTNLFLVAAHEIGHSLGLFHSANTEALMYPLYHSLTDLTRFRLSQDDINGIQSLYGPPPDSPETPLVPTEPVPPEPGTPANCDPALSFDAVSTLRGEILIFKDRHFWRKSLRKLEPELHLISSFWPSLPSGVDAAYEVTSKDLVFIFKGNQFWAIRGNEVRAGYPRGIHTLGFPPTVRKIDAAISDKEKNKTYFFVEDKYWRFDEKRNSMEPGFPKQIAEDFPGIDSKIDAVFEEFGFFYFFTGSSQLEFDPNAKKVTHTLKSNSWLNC

Regarding `CNC(=O)[C@H](CCC(=O)OC)NC(=O)[C@H](CC(C)C)[C@H](CSc1ccccc1)C(=O)NO` [Example 1, 3R-(3-Methoxycarbonyl-1S-methylcarbamoyl-propylcarbamoyl)-5-methyl-2-S-phenylsulfanylmethyl hexanohydroxamic acid], the IC50 at collagenase stood at 20 nM; against stromelysin, 250 nM.

Turning to `CNC(=O)[C@H](CCC(=O)OC)NC(=O)[C@H](CC(C)C)[C@H](CSc1cccs1)C(=O)NO` [Example 2, 3R-(3-Methoxycarbonyl-1S-methylcarbamoyl-propylcarbamoyl)-5-methyl-2S-(thien-2-ylsulfanylmethyl)-hexanohydroxamic acid], the IC50 was less than 50 µM in assay [1] and 15 nM at collagenase.

Take `CNC(=O)[C@H](CCC(=O)OC)NC(=O)[C@H](CC(C)C)[C@H](CSc1ccc(O)cc1)C(=O)NO` [Example 3, 2S-(4-Hydroxyphenylsulfanylmethyl)-3R-(3-methoxycarbonyl-1S-methylcarbamoyl-propylcarbamoyl)-5-methyl-hexanohydroxamic acid]: the figures for the IC50 (in assay [1]; at collagenase; against stromelysin) were less than 50 µM, 9 nM and 50 nM, respectively. Also, the “Average % change in serum TNF level, LPS + test compound” value in the assay with serum TNF (0 hrs from LPS bolus IV injection, infusion 2.5 mg.kg^-1.hr^-1 started 15 minutes before LPS 40 μg.kg^-1 i.v., n = 4) is on record as 0%; with serum TNF (1 hr from LPS bolus, infusion 2.5 mg.kg^-1.hr^-1, LPS alone (n = 5) +65), -58%; with serum TNF (2 hrs from LPS bolus, infusion 2.5 mg.kg^-1.hr^-1, LPS alone (n = 5) +55) it was -65%; in the assay with serum TNF (3 hrs from LPS bolus, infusion 2.5 mg.kg^-1.hr^-1, LPS alone (n = 5) -30), -99%; with serum TNF (4 hrs from LPS bolus, infusion 2.5 mg.kg^-1.hr^-1, LPS alone (n = 5) -100), -100%.

As to `CNC(=O)[C@H](CCC(=O)OC(C)(C)C)NC(=O)[C@H](CC(C)C)[C@H](CSc1ccc(O)cc1)C(=O)NO` [Example 12, 2S-(4-Hydroxyphenylsulfanylmethyl)-3R-(3-tertbutoxycarbonyl-1S-methylcarbamoyl-propylcarbamoyl)-5-methyl-hexanohydroxamic acid], the IC50 is less than 50 µM in assay [1], 20 nM at collagenase and 40 nM at stromelysin.

As to `O=C1CCC(N2C(=O)c3ccccc3C2=O)C(=O)N1` (centres unmarked) [Thalidomide], in assay [2], the “inhibition of TNF production by leucocytes” value was “inhibit TNF production by leucocytes”.

For `CC(=O)CCCCn1c(=O)c2c(ncn2C)n(C)c1=O` [pentoxyfilline], the “specificity of inhibition of TNF gene transcription” value with TNF gene transcription is “more specific inhibitors of TNF gene transcription”.
